Assay results published in patent publication US20230212131A1, “COLLAGEN 1 TRANSLATION INHIBITORS AND METHODS OF USE THEREOF” (Anima Biotech Inc., priority 2020, published 2023).

tested on: collagen 1 (COL1); test: WI-38 collagen 1 inhibition assay; assay type: cell-based, human; details: Cellular EC50, WI-38 cells; values are classes of LogEC50
From the text: All compounds were profiled for cellular potency in inhibition of collagen 1 (COL1) protein translation using a phenotypic screening platform.
WI-38 cells (ATCC® CCL-75™) were maintained in MEM EAGLE (NEAA) W. GLUTAMIN (Biological Industries, Cat. 06-1040-15-1A) containing 10% fetal bovine serum (FBS) and 1% Penicillin-Streptomycin Solution. To synchronize the cells (cell cycle synchronization) prior to induction of collagen synthesis, the cells were starved using DMEM-low glucose supplemented with 0.25% FBS for two hours and then without FBS for 24 hours. To induce collagen synthesis, the cells were treated with a collagen induction cocktail for the indicated time. Compounds were added with induction.
Cells in 96-well or 384-well plates were fixed for 20 min in 4% paraformaldehyde (PFA, ENCO, Cat. sc-281692). Following two washes with 1×PBS, cells were treated with hydrogen peroxide (Acros, Cat: 7722-84-1) for 10 minutes and then washed twice with 1×PBS. Cells were then incubated over-night at 4° C. with Anti-Collagen I (Sigma-Aldrich, Cat: C 2456) antibody and washed three times with 1×PBS. Cells were then incubated with a suitable secondary fluorescently-tagged antibody and nuclei stained with DAPI, for 1 hour, and then washed 3 times with 1×PBS.
Cell images were taken with Operetta (Perkin Elmer, USA), a wide-field fluorescence microscope at 20× magnification. After acquisition, the images were transferred to Columbus software (Perkin-Elmer) for image analysis. In Columbus, cells were identified by their nucleus, using the “Find Nuceli” module and cytoplasm was detected based on the secondary antibody channel. Subsequently, the fluorescent signal was enumerated in the identified cell region. Data was exported to a data analysis and visualization software, Tibco Spotfire, USA.

Row | Compound | COL1 Efficacy (LogEC50)
1 | COCCOCc1ccccc1-c1csc(NC(=O)c2ccc(N3CCOCC3)cc2)n1 [Compound 379, N-(4-(2-((2-methoxyethoxy)methyl)phenyl)thiazol-2-yl)-4-morpholinobenzamide] | ++ (++: −5 to −6)
2 | O=C(Nc1nc(-c2ccccc2Cl)cs1)c1ccc(C2CCOCC2)cc1 [Compound 380, N-(4-(2-chlorophenyl)thiazol-2-yl)-4-(tetrahydro-2H-pyran-4-yl)benzamide] | +++ (+++: <−6)
3 | O=C(Nc1nc(-c2ccccc2Cl)cs1)c1ccc(C2CCOCC2)cn1 [Compound 381, N-(4-(2-chlorophenyl)thiazol-2-yl)-5-(tetrahydro-2H-pyran-4-yl)picolinamide] | +++ (+++: <−6)
4 | O=C(Nc1nc(-c2ccccc2Cl)cs1)c1ccc(C2CCS(=O)(=O)CC2)cn1 [Compound 383, N-(4-(2-chlorophenyl)thiazol-2-yl)-5-(1,1-dioxidotetrahydro-2H-thiopyran-4-yl)picolinamide] | +++ (+++: <−6)
5 | O=C(Nc1nc(N2CCCC2=O)cs1)c1ccc(N2CCOCC2)cn1 [Compound 395, 5-morpholino-N-(4-(2-oxopyrrolidin-1-yl)thiazol-2-yl)picolinamide] | + (+: >−5)
6 | CN(C(=O)c1ccc(N2CCOCC2)cc1)c1nc(-c2ccccc2Cl)cs1 [Compound 399, N-(4-(2-chlorophenyl)thiazol-2-yl)-N-methyl-4-morpholinobenzamide] | ++ (++: −5 to −6)
7 | CN(C(=O)c1ccc(N2CCOCC2)cn1)c1nc(-c2ccccc2Cl)cs1 [Compound 400, N-(4-(2-chlorophenyl)thiazol-2-yl)-N-methyl-5-morpholinopicolinamide] | ++ (++: −5 to −6)
8 | CS(=O)(=O)N1CCN(c2ccc(C(=O)Nc3nc(-c4ccccc4Cl)cs3)nc2)CC1 [Compound 403, N-(4-(2-chlorophenyl)thiazol-2-yl)-5-(4-(methylsulfonyl)piperazin-1-yl)picolinamide] | +++ (+++: <−6)
9 | O=C(Nc1nc(-c2ccccc2Cl)c[nH]1)c1ccc(N2CCOCC2)cn1 [Compound 404, N-(4-(2-chlorophenyl)-1H-imidazol-2-yl)-5-morpholinopicolinamide] | +++ (+++: <−6)
10 | O=C(Nc1nc(-c2ccccc2Cl)cs1)c1ccc(N2CCOCC2)cc1Cl [Compound 409, 2-chloro-N-(4-(2-chlorophenyl)thiazol-2-yl)-4-morpholinobenzamide] | ++ (++: −5 to −6)
11 | Cc1cc(N2CCOCC2)ccc1C(=O)Nc1nc(-c2ccccc2Cl)cs1 [Compound 410, N-(4-(2-chlorophenyl)thiazol-2-yl)-2-methyl-4-morpholinobenzamide] | +++ (+++: <−6)
12 | O=C(Nc1nc(-c2ccccc2Cl)cs1)c1ccc(N2CCOCC2)cc1C(F)(F)F [Compound 411, N-(4-(2-chlorophenyl)thiazol-2-yl)-4-morpholino-2-(trifluoromethyl)benzamide] | +++ (+++: <−6)
13 | O=C(Nc1nc(-c2ccccc2Cl)cs1)C12CC(N3CCOCC3)(C1)C2 [Compound 416, N-(4-(2-chlorophenyl)thiazol-2-yl)-3-morpholinobicyclo[1.1.1]pentane-1-carboxamide] | ++ (++: −5 to −6)
14 | CS(=O)(=O)N1CCN(C23CC(C(=O)Nc4nc(-c5ccccc5Cl)cs4)(C2)C3)CC1 [Compound 418, N-(4-(2-chlorophenyl)thiazol-2-yl)-3-(4-(methylsulfonyl)piperazin-1-yl)bicyclo[1.1.1]pentane-1-carboxamide] | ++ (++: −5 to −6)
15 | O=C(Nc1nc(-c2ccccc2Cl)cs1)C1CC(N2CCOCC2)C1 (stereo not drawn) [Compound 421, (1s,3s)-N-(4-(2-chlorophenyl)thiazol-2-yl)-3-morpholinocyclobutane-1-carboxamide] | + (+: >−5)
